Measured values: patent publication US20260035364A1, “BICYCLIC TETRAHYDROTHIAZEPINE DERIVATIVES” (Hoffmann-La Roche Inc., priority 2022, published 2026)

Key:
primary human T-cells = assay: T-cell proliferation assay (CellTiter-Glo); assay type: cell-based; settings: Homo sapiens, T-cell, 120 h, CD3 condition; for Emax: 5 days, 20 μM reference compound A1 = 100%, read-out: Emax proliferation (% activation); for EC50: proliferation after 5 days, CellTiter-Glo, read-out: Tcell Proliferation CD3 EC50
Outline: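 Expanded primary human T-cells (100k/well) on plates coated with CD3 antibody or PBS only, given a 5- or 6-point dose response (top 20 or 10 μM final, 3.333-fold steps, 0.2% DMSO). ATP measured by CellTiter-Glo 2.0 luminescence after 5 days. Normalized to DMSO and 20 μM reference A1 (100%); EC50 and Emax reported for CD3 conditions.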

MV-3 cells = assay: T-cell - TCB - MV3 killing assay; assay type: cell-based; settings: Homo sapiens, 120 h, T-cells + MCSP-TCB on MV-3 RFP cells, 5 d; for Emax: 20 μM reference compound A1 = 100%, read-out: MSCP TCB killing MV-3 cells 5 d Emax; for EC50: read-out: MSCP TCB killing MV-3 cells 5 d EC50
Method: All culturing steps are executed at 5% CO2, 37° C. and 95% humidity.
MV-3 RFP cells are cultured in MV-3 medium (DMEM+10% FBS, 1× PenStrep and 0.5 μg/mL Puromycin) for at least 3 weeks. Cultured MV-3 cells at 80% confluency are washed once with PBS−− and trypsinized until detached. […] Cells are seeded with 100 μL/well into a 96-well plate (TTP, #92696), and placed for 40 minutes without moving at room temperature in order to achieve evenly distributed attachment of cells. Plates are then incubated until further use.
On the next day, expanded primary human T-cells are thawed and resuspended in T-cell medium to 4*10^6 cells/mL. For 3 hours, they are cultured in a 6-well plate with 6 mL per well at maximum. After culturing the T-cells, they are filtered through a cell strainer (Miltenyi Biotech, #130-041-407), counted again, and cell concentration is adjusted to 2*10^6 cells/mL.
MCSP-TCB or PBS are pre-diluted in T-cell medium (concentration depending on T-cell donor), 4 times more concentrated than the end-concentration. 60 μL/well of pre-dilutions are then distributed into a round bottom plate (Costar, #3799) according to plate layout. Compounds are added in a 9 pt dose response with the Tecan D300e Digital Dispenser, as well 4 times more concentrated than the end-concentration. DMSO concentration of all wells is adjusted to 0.8%, resulting in 0.2% as final concentration.
60 μL per well of T-cell suspension are added to the prepared round bottom plate and resuspended with a manual multichannel. 100 μL/well of the resuspended T-cell suspension including treatments are then transferred cautiously to the over-night cultured MV-3 cells according to plate layout. 100 μL T-cell medium only is added to the outer MV-3 wells only. Final compound DR is starting at 20 μM with a dilution factor of 3.333. Final TCB concentration is between […] and was determined for each T-cell donor individually by running TCB titrations. For each donor, a TCB concentration was chosen which corresponds to 10-20% of MV3 baseline cell killing in the absence of compound treatment. Positive control is the reference compound A1 which is added in a DR, as well as additional wells with only 20 μM. 20 μM of reference compound A1 represent the positive stimulator control, TCB only (DMSO wells) the neutral control.
After transfer of T-cells with treatment pre-dilutions, MV-3 cells are imaged by time-lapse microscopy using IncucyteZOOM™ (Essen BioScience, MI, USA). Imaging is performed every 3 hours for a total of 120 hours (1OX objective, phase and red image channels, acquisition time 400 ms, Green/Red 4614 optical module). RFP object count per well is analysed in the IncucyteZOOM™ Software (Version 2019B Rev2) with a mask that was previously created and optimized for MV-3 cells. Raw data is exported as object count/well and values are normalized as % TCL compared to wells with MV-3 only, representing 100% growth and therefore 0% TCL.
Calculated % TCL values are analysed in Genedata Screener using Roche Normalization PCT_POS_CTRL with MCSP-TCB only set as Neutral Control and 20 μM of the reference compound A1 set as Stimulator Control/100%.
Induced TCL by compounds without TCB treatment or toxicity (observed in the PBS condition) were be flagged.

| SMILES | Emax (primary human T-cells) [%] | EC50 (primary human T-cells) [nM] | Emax (MV-3 cells) [%] | EC50 (MV-3 cells) [nM] |
| --- | --- | --- | --- | --- |
| CC(C)(c1nnc(-c2ccc3c(c2)N(Cc2ccc(Oc4ccccc4)cc2)C(=O)[C@@H](N)CS3(=O)=O)o1)S(C)(=O)=O [Example 5, (3R)-3-amino-7-[5-(1-methyl-1-methylsulfonyl-ethyl)-1,3,4-oxadiazol-2-yl]-1,1-dioxo-5-[(4-phenoxyphenyl)methyl]-2,3-dihydro-1λ6,5-benzothiazepin-4-one] | 120 | 942 | 154 | 982 |
| CC(C)(c1nc(-c2cc3c(cc2F)S(=O)(=O)C[C@H](N)C(=O)N3Cc2ccc(Oc3ccccc3)cc2)no1)S(C)(=O)=O [Example 30, (3R)-3-amino-8-fluoro-7-[5-(1-methyl-1-methylsulfonyl-ethyl)-1,2,4-oxadiazol-3-yl]-1,1-dioxo-5-[(4-phenoxyphenyl)methyl]-2,3-dihydro-1λ6,5-benzothiazepin-4-one] | 225 | 127 | 100 | 41 |
| CC(C)(c1nnc(-c2ccc3c(c2)N(Cc2ccc(Oc4cccc(F)c4)cc2)C(=O)[C@@H](N)CS3(=O)=O)o1)S(C)(=O)=O [Example 33, (3R)-3-amino-5-[[4-(3-fluorophenoxy)phenyl]methyl]-7-[5-(1-methyl-1-methylsulfonyl-ethyl)-1,3,4-oxadiazol-2-yl]-1,1-dioxo-2,3-dihydro-1λ6,5-benzothiazepin-4-one] | 82 | 645 | 117 | 465 |
| CC(C)(c1nnc(-c2ccc3c(c2)N(Cc2ccc(Oc4cccc(Cl)c4)cc2)C(=O)[C@@H](N)CS3(=O)=O)o1)S(C)(=O)=O [Example 34, (3R)-3-amino-5-[[4-(3-chlorophenoxy)phenyl]methyl]-7-[5-(1-methyl-1-methylsulfonyl-ethyl)-1,3,4-oxadiazol-2-yl]-1,1-dioxo-2,3-dihydro-1λ6,5-benzothiazepin-4-one] | 127 | 1270 | 95 | 392 |
| CC(C)(c1nnc(-c2ccc3c(c2)N(Cc2ccc(Oc4cccc(C(F)(F)F)c4)cc2)C(=O)[C@@H](N)CS3(=O)=O)o1)S(C)(=O)=O [Example 38] | 130 | 623 | 102 | 112 |
| CC(C)(c1nc(-c2cc3c(cc2F)S(=O)(=O)C[C@H](N)C(=O)N3Cc2ccc(OC(F)(F)F)cc2)no1)S(C)(=O)=O [Example 44, (3R)-3-amino-8-fluoro-7-[5-(1-methyl-1-methylsulfonyl-ethyl)-1,2,4-oxadiazol-3-yl]-1,1-dioxo-5-[[4-(trifluoromethoxy)phenyl]methyl]-2,3-dihydro-1λ6,5-benzothiazepin-4-one] | 251 | 208 | 131 | 65 |
| CC(C)(c1nc(-c2cc3c(cc2F)S(=O)(=O)C[C@H](N)C(=O)N3Cc2ccc(-c3noc(C4CC4)n3)cc2)no1)S(C)(=O)=O [Example 45, (3R)-3-amino-5-[[4-(5-cyclopropyl-1,2,4-oxadiazol-3-yl)phenyl]methyl]-8-fluoro-7-[5-(1-methyl-1-methylsulfonyl-ethyl)-1,2,4-oxadiazol-3-yl]-1,1-dioxo-2,3-dihydro-1λ6,5-benzothiazepin-4-one] | 260 | 235 | 67 | 35 |
| CC(C)(c1nc(-c2cc3c(cc2F)S(=O)(=O)C[C@H](N)C(=O)N3Cc2ccc(-c3noc(C(F)(F)F)n3)cc2)no1)S(C)(=O)=O [Example 46, (3R)-3-amino-8-fluoro-7-[5-(1-methyl-1-methylsulfonyl-ethyl)-1,2,4-oxadiazol-3-yl]-1,1-dioxo-5-[[4-[5-(trifluoromethyl)-1,2,4-oxadiazol-3-yl]phenyl]methyl]-2,3-dihydro-1λ6,5-benzothiazepin-4-one] | 185 | 135 | 65 | 25 |
| CC(C)(c1nnc(-c2ccc3c(c2)N(Cc2ccc(-c4ccc(C(F)(F)F)cc4)cc2)C(=O)[C@@H](N)CS3(=O)=O)o1)S(C)(=O)=O [Example 56, (3R)-3-amino-7-[5-(1-methyl-1-methylsulfonyl-ethyl)-1,3,4-oxadiazol-2-yl]-1,1-dioxo-5-[[4-[4-(trifluoromethyl)phenyl]phenyl]methyl]-2,3-dihydro-1λ6,5-benzothiazepin-4-one] | 137 | 636 | 100 | 105 |
| CC(C)(c1nnc(-c2ccc3c(c2)N(Cc2ccc(-c4ccc(C(F)(F)F)cc4)nc2)C(=O)[C@@H](N)CS3(=O)=O)o1)S(C)(=O)=O [Example 57, (3R)-3-amino-7-[5-(1-methyl-1-methylsulfonyl-ethyl)-1,3,4-oxadiazol-2-yl]-1,1-dioxo-5-[[6-[4-(trifluoromethyl)phenyl]-3-pyridyl]methyl]-2,3-dihydro-1λ6,5-benzothiazepin-4-one] | 65 | 1110 | 104 | 1850 |
